Experimental findings from ChEMBL document CHEMBL3044578, “Synthesis, insecticidal activity, and molecular docking studies of nitenpyram analogues with a flexible ester arm anchored on tetrahydropyrimidine ring” (2011) are described below.

The mortality is the percentage killed. As a reminder, the LC50 is the concentration that kills 50% of the test population.

What all share (assay type): functional
Assay [1] relates to Nilaparvata lugens. As to the kind of experiment: Insecticidal activity against Nilaparvata lugens (brown planthopper) assessed as mortality at 20 mg/l after 72 hr.
Assay [2] deals with Nilaparvata lugens. As to the kind of experiment: Insecticidal activity against Nilaparvata lugens (brown planthopper) assessed as mortality at 100 mg/l after 72 hr.
For assay [3], the system named is Nilaparvata lugens. As to the kind of experiment: Insecticidal activity against Nilaparvata lugens (brown planthopper) assessed as mortality at 500 mg/l after 72 hr.
Assay [4] deals with Nilaparvata lugens. As to the kind of experiment: Insecticidal activity against Nilaparvata lugens (brown planthopper) assessed as mortality after 72 hr.

Values after ≈ are worked out from the molar mass of the structure shown.

For `CCCCOC(=O)CCCN1CC([N+](=O)[O-])=C(N(CC)Cc2ccc(Cl)nc2)N(C)C1`, in the assay with Nilaparvata lugens [1], the mortality at 20 µg/mL is 82%. Moreover, in the assay on Nilaparvata lugens [2], the mortality at 100 µg/mL amounted to 100%. Besides, the mortality at 500 µg/mL in the assay with Nilaparvata lugens [3] is 100%.

For `CCC(C)OC(=O)CCCN1CC([N+](=O)[O-])=C(N(CC)Cc2ccc(Cl)nc2)N(C)C1` (configuration not stated), the mortality at 20 µg/mL in the assay on Nilaparvata lugens [1] was 59%. In addition, the mortality at 100 µg/mL with Nilaparvata lugens [2] is 93%. Besides, the mortality at 500 µg/mL in the assay with Nilaparvata lugens [3] amounted to 100%.

In the case of `CCN(Cc1ccc(Cl)nc1)C1=C([N+](=O)[O-])CN(CCCC(=O)OCC(C)C)CN1C`, the mortality at 20 µg/mL in the assay with Nilaparvata lugens [1] stood at 54%. For the same compound, the mortality at 100 µg/mL in the assay with Nilaparvata lugens [2] is 100%. The mortality at 500 µg/mL in the assay with Nilaparvata lugens [3] was 100%.

Regarding `CCN(Cc1ccc(Cl)nc1)C1=C([N+](=O)[O-])CN(CCCC(=O)OC(C)(C)C)CN1C`, in the assay on Nilaparvata lugens [1], the mortality at 20 µg/mL was found to be 36%. The mortality at 100 µg/mL with Nilaparvata lugens [2] came to 68%. In addition, the mortality at 500 µg/mL in the assay with Nilaparvata lugens [3] came to 100%.

On to `CCC(C)OC(=O)CN1CC([N+](=O)[O-])=C(N(CC)Cc2ccc(Cl)nc2)N(C)C1` (configuration not stated), for which the mortality at 20 µg/mL in the assay on Nilaparvata lugens [1] was determined as 53%. The mortality at 100 µg/mL in the assay on Nilaparvata lugens [2] stood at 79%. The mortality at 500 µg/mL with Nilaparvata lugens [3] was determined as 100%.

Take `CCN(Cc1ccc(Cl)nc1)C1=C([N+](=O)[O-])CN(CC(=O)OCC(C)C)CN1C`: the mortality at 20 µg/mL in the assay on Nilaparvata lugens [1] was found to be 68%. In the assay with Nilaparvata lugens [2], the mortality at 100 µg/mL was 100%. In the assay on Nilaparvata lugens [3], the mortality at 500 µg/mL came out at 100%.

As to `CCN(Cc1ccc(Cl)nc1)C1=C([N+](=O)[O-])CN(CC(=O)OC(C)(C)C)CN1C`, in the assay with Nilaparvata lugens [1], the mortality at 20 µg/mL was found to be 47%. Also, the mortality at 100 µg/mL in the assay on Nilaparvata lugens [2] turned out to be 73%. The mortality at 500 µg/mL with Nilaparvata lugens [3] stood at 100%.

`CCN(Cc1ccc(Cl)nc1)C1=C([N+](=O)[O-])CN(CCC(=O)OC)CN1C`: in the assay with Nilaparvata lugens [1], the mortality at 20 µg/mL came out at 95%. Besides, the mortality at 100 µg/mL in the assay with Nilaparvata lugens [2] stood at 100%. In addition, the mortality at 500 µg/mL with Nilaparvata lugens [3] was 100%.

As for `CCOC(=O)CCN1CC([N+](=O)[O-])=C(N(CC)Cc2ccc(Cl)nc2)N(C)C1`, the mortality at 20 µg/mL with Nilaparvata lugens [1] came out at 93%. Besides, in the assay with Nilaparvata lugens [2], the mortality at 100 µg/mL was 100%. The mortality at 500 µg/mL in the assay on Nilaparvata lugens [3] came to 100%.

Regarding `CCCOC(=O)CCN1CC([N+](=O)[O-])=C(N(CC)Cc2ccc(Cl)nc2)N(C)C1`, in the assay on Nilaparvata lugens [4], the LC50 was found to be 0.194 µg/mL (≈ 0.455 µM). Further, the mortality at 20 µg/mL in the assay on Nilaparvata lugens [1] is 100%. In addition, in the assay with Nilaparvata lugens [2], the mortality at 100 µg/mL stood at 100%. The mortality at 500 µg/mL in the assay with Nilaparvata lugens [3] worked out at 100%.

For the compound `CCN(Cc1ccc(Cl)nc1)C1=C([N+](=O)[O-])CN(CCC(=O)OC(C)C)CN1C`, in the assay on Nilaparvata lugens [4], the LC50 worked out at 0.162 µg/mL (≈ 0.38 µM). The mortality at 20 µg/mL with Nilaparvata lugens [1] turned out to be 100%. Further, the mortality at 100 µg/mL in the assay on Nilaparvata lugens [2] came to 100%. In addition, the mortality at 500 µg/mL with Nilaparvata lugens [3] was 100%.

Consider `CCCCOC(=O)CCN1CC([N+](=O)[O-])=C(N(CC)Cc2ccc(Cl)nc2)N(C)C1`, for which the mortality at 20 µg/mL in the assay with Nilaparvata lugens [1] came to 78%. The mortality at 100 µg/mL with Nilaparvata lugens [2] was 92%. Moreover, the mortality at 500 µg/mL in the assay with Nilaparvata lugens [3] stood at 100%.

On to `CCC(C)OC(=O)CCN1CC([N+](=O)[O-])=C(N(CC)Cc2ccc(Cl)nc2)N(C)C1` (configuration not stated), for which the mortality at 20 µg/mL with Nilaparvata lugens [1] came out at 84%. In the assay on Nilaparvata lugens [2], the mortality at 100 µg/mL came to 100%. The mortality at 500 µg/mL in the assay with Nilaparvata lugens [3] was found to be 100%.

As for `CCN(Cc1ccc(Cl)nc1)C1=C([N+](=O)[O-])CN(CCC(=O)OCC(C)C)CN1C`, the mortality at 20 µg/mL with Nilaparvata lugens [1] turned out to be 52%. Moreover, the mortality at 100 µg/mL in the assay on Nilaparvata lugens [2] amounted to 100%. For the same compound, the mortality at 500 µg/mL in the assay on Nilaparvata lugens [3] amounted to 100%.

Turning to `CCN(Cc1ccc(Cl)nc1)C1=C([N+](=O)[O-])CN(CCC(=O)OC(C)(C)C)CN1C`, in the assay with Nilaparvata lugens [1], the mortality at 20 µg/mL worked out at 66%. Further, in the assay with Nilaparvata lugens [2], the mortality at 100 µg/mL turned out to be 81%. In addition, the mortality at 500 µg/mL in the assay on Nilaparvata lugens [3] was determined as 100%.

For `CCN(Cc1ccc(Cl)nc1)C1=C([N+](=O)[O-])CN(CCCC(=O)OC)CN1C`, the mortality at 20 µg/mL in the assay with Nilaparvata lugens [1] was 79%. For the same compound, in the assay with Nilaparvata lugens [2], the mortality at 100 µg/mL stood at 100%. Further, the mortality at 500 µg/mL with Nilaparvata lugens [3] was 100%.

Regarding `CCOC(=O)CCCN1CC([N+](=O)[O-])=C(N(CC)Cc2ccc(Cl)nc2)N(C)C1`, the mortality at 20 µg/mL with Nilaparvata lugens [1] came out at 85%. The mortality at 100 µg/mL with Nilaparvata lugens [2] stood at 100%. The mortality at 500 µg/mL in the assay with Nilaparvata lugens [3] came to 100%.

With `CCCOC(=O)CCCN1CC([N+](=O)[O-])=C(N(CC)Cc2ccc(Cl)nc2)N(C)C1`, the mortality at 20 µg/mL in the assay on Nilaparvata lugens [1] is 43%. In the assay with Nilaparvata lugens [2], the mortality at 100 µg/mL worked out at 100%. Also, the mortality at 500 µg/mL with Nilaparvata lugens [3] was found to be 100%.

For `CCN(Cc1ccc(Cl)nc1)C1=C([N+](=O)[O-])CN(CCCC(=O)OC(C)C)CN1C`, the mortality at 20 µg/mL with Nilaparvata lugens [1] worked out at 58%. Moreover, in the assay on Nilaparvata lugens [2], the mortality at 100 µg/mL worked out at 100%. In addition, the mortality at 500 µg/mL in the assay on Nilaparvata lugens [3] stood at 100%.

Regarding `CCN(Cc1ccc(Cl)nc1)C1=C([N+](=O)[O-])CN(CC(=O)OC)CN1C`, the mortality at 20 µg/mL in the assay on Nilaparvata lugens [1] turned out to be 86%. The mortality at 100 µg/mL in the assay on Nilaparvata lugens [2] amounted to 94%. Moreover, the mortality at 500 µg/mL in the assay on Nilaparvata lugens [3] was 100%.

Turning to `CCOC(=O)CN1CC([N+](=O)[O-])=C(N(CC)Cc2ccc(Cl)nc2)N(C)C1`, in the assay on Nilaparvata lugens [1], the mortality at 20 µg/mL came to 94%. The mortality at 100 µg/mL in the assay with Nilaparvata lugens [2] stood at 100%. The mortality at 500 µg/mL with Nilaparvata lugens [3] is 100%.

As for `CCCOC(=O)CN1CC([N+](=O)[O-])=C(N(CC)Cc2ccc(Cl)nc2)N(C)C1`, in the assay on Nilaparvata lugens [1], the mortality at 20 µg/mL stood at 73%. Besides, the mortality at 100 µg/mL in the assay on Nilaparvata lugens [2] came to 96%. In the assay with Nilaparvata lugens [3], the mortality at 500 µg/mL stood at 100%.

For the compound `CCN(Cc1ccc(Cl)nc1)C1=C([N+](=O)[O-])CN(CC(=O)OC(C)C)CN1C`, the mortality at 20 µg/mL with Nilaparvata lugens [1] worked out at 76%. In the assay on Nilaparvata lugens [2], the mortality at 100 µg/mL worked out at 85%. For the same compound, in the assay on Nilaparvata lugens [3], the mortality at 500 µg/mL stood at 100%.

As to `CCCCOC(=O)CN1CC([N+](=O)[O-])=C(N(CC)Cc2ccc(Cl)nc2)N(C)C1`, the mortality at 20 µg/mL in the assay on Nilaparvata lugens [1] was 67%. For the same compound, the mortality at 100 µg/mL in the assay on Nilaparvata lugens [2] amounted to 75%. Besides, in the assay with Nilaparvata lugens [3], the mortality at 500 µg/mL worked out at 100%.

Take `O=[N+]([O-])/N=C1\NCCN1Cc1ccc(Cl)nc1` [IMIDACLOPRID]: in the assay on Nilaparvata lugens [4], the LC50 was determined as 0.108 µg/mL (≈ 0.422 µM). The mortality at 20 µg/mL with Nilaparvata lugens [1] was found to be 100%. The mortality at 100 µg/mL in the assay on Nilaparvata lugens [2] worked out at 100%. Also, the mortality at 500 µg/mL in the assay with Nilaparvata lugens [3] stood at 100%.

In the case of `CCN(Cc1ccc(Cl)nc1)/C(=C/[N+](=O)[O-])NC` [NITENPYRAM], the LC50 in the assay on Nilaparvata lugens [4] stood at 0.129 µg/mL (≈ 0.477 µM). Moreover, the mortality at 20 µg/mL with Nilaparvata lugens [1] was found to be 100%. Besides, the mortality at 100 µg/mL in the assay on Nilaparvata lugens [2] came to 100%. Besides, in the assay with Nilaparvata lugens [3], the mortality at 500 µg/mL was determined as 100%.
